# In ChEMBL document CHEMBL1128894, “Enzymatic cyclization of nicotinamide adenine dinucleotide phosphate (NADP)” (Bioorg Med Chem Lett, 1995):
# Species: Rattus norvegicus
# Test: Effective concentration for calcium mobilization (Ca 2+ release) in rat brain microsomes
# Type: functional
row,Structure (SMILES),EC50
1,N=c1c2ncn3c2ncn1[C@@H]1O[C@H](COP(=O)(O)OP(=O)(O)OC[C@H]2O[C@@H]3[C@H](OP(=O)(O)O)[C@@H]2O)[C@@H](O)[C@H]1O,9.2 µM
2,N=c1c2ncn3c2ncn1[C@@H]1O[C@H](COP(=O)(O)OP(=O)(O)OC[C@H]2OC3[C@H](O)[C@@H]2O)[C@@H](O)[C@H]1O,22 µM
3,"O=P(O)(O)O[C@@H]1[C@H](O)[C@H](O)[C@@H](OP(=O)(O)O)[C@H](OP(=O)(O)O)[C@H]1O [INS(1,4,5)P3]",0.1 µM
